Results: patent US6525245B1, “Method for identifying components involved in signal transduction pathways in higher plants” (The Board of Regents of the University of Nebraska, priority 1999, dated 2003)

Legend:
AOX = conditions: cited from earlier work; for effect on AOX transcription / effect on branched chain amino acid biosynthesis: Aubert et al. 1997
AOX1a promoter [1] = assay: Luciferase expression in excised leaves of AOX1a promoter::luciferase transgenic lines, exposure to film; type: cell-based, Arabidopsis thaliana; conditions: for luciferase response to application: lines PZB-ALN 26 and 47
Protocol: Initial screening of the F1 plants was done by spraying excised leaves with 10 uM AA (FIG. 4A). The leaves were incubated for 4 hr in the light, then sprayed with luciferin, and exposed to autoradiographic film. […] Several pZB-ALN lines were used for imaging experiments employing a Hamamatsu photon-counting, CCD camera system (model C2400-75H).

Arabidopsis plants = assay: Survival of Arabidopsis plants after treatment; type: in vivo
Protocol: In order for a screen involving application of antimycin A or sulfometuron methyl to succeed, plants must survive the screening procedure. […] Plants from line pZB-ALN 8 were used to produce the dose response curve shown in FIG. 6 were transferred to fresh growth plates (without antimycin A) after 36 h of antimycin A treatment. […] These plants remained green with healthy, expanded first true leaves and healthy roots and produced a normal-looking second set of true leaves.

AOX1a promoter [2] = assay: Dose-response of AOXP-driven luciferase expression in seedlings, photon-counting CCD camera; type: in vivo, Arabidopsis thaliana; conditions: line pZB-ALN 8
Protocol: Seeds from these lines were sterilized and germinated on filter discs on standard growth agar in six-well plates and then grown at 20° C. and 66 uE of continuous light for 7 days (to eliminate the possibility of circadian rhythm effects). A Hamamatsu CCD camera system was used to quantify the levels of AOXP-driven luciferase expression. […] Plants were imaged immediately following transfer to induction plates, then returned to the growth chamber under 66 uE continuous light and 20° C.

O=C(O)c1ccccc1O [salicylic acid]
AOX transcript accumulation (AOX; Sauromatum guttatum and tobacco): accumulate
luciferase response to application (AOX1a promoter [1]): lower, but definite response

COC(=O)c1ccccc1S(=O)(=O)NC(=O)Nc1nc(C)cc(C)n1 [sulfometuron methyl]
survival of plants after treatment (Arabidopsis plants; wild-type Arabidopsis plants sprayed with 5 uM or 5 nM): survive treatment
effect on AOX transcription (AOX): increase in AOX transcription
effect on branched chain amino acid biosynthesis (AOX): inhibit branched chain amino acid biosynthesis
luciferase expression (AOX1a promoter [1]; 5 nM, 24 h following treatment, some of the lines): higher luciferase expression

antimycin A
peak induction of luciferase expression over the negative control (AOX1a promoter [2]; 1.0 mM or 100 uM): about 17 fold
time after transfer until which peak induction level is kept (AOX1a promoter [2]; 1.0 mM or 100 uM): at least 10 h
time of peak induction after application (AOX1a promoter [2]; 1.0 mM or 100 uM): about 6 h
lowest concentration giving measurable induction (AOX1a promoter [2]): 0.1 µM
survival of plants after treatment (Arabidopsis plants; line pZB-ALN 8, 0.1, 1.0, 10, 100 and 1000 uM, 36 h treatment, six days after treatment): survived without any apparent developmental alterations
effect on AOX protein and transcript (AOX; petunia cells, tobacco, Hensenula anomala): increases in AOX protein and transcript
luciferase expression versus untreated control leaves (AOX1a promoter [1]; 10 uM, 4 h after treatment, excised leaves, pZB-ALN and pZP-ALE lines, qualitative): higher luciferase expression

O=C(O)CC(O)(CC(=O)O)C(=O)O [citrate]
AOX mRNA accumulation (AOX; increase in amount of citrate in tobacco cells): accumulate
luciferase response to application (AOX1a promoter [1]): lower, but definite response

COc1nc(C)nc(NC(=O)NS(=O)(=O)c2ccccc2Cl)n1 [chlorsulfuron]
effect on AOX transcription (AOX): increase in AOX transcription
effect on branched chain amino acid biosynthesis (AOX): inhibit branched chain amino acid biosynthesis
